Assays:
[1] = system: immunosuppressed animals induced by anticancer drug (cyclophosphamide); test: Immunosuppressed animals induced by cyclophosphamide: cognitive improvement, hippocampus indicators; type: in vivo, C57BL/6 male mice; settings: cyclophosphamide (CP)-treated mice, 1×10^9 CFU/mouse orally once a day for 5 days; for IFN-γ/IL-10 / IL-10 / Interferon (IFN)-γ / TNF-a/IL-10 / TNF-α: hippocampus
Protocol: Hippocampus, colon, and spleen tissues were homogenized by adding 1 ml of RIPA buffer (Gibco) containing protease inhibitor cocktail and centrifuged at 4° C., 13000 rpm for 15 min to obtain supernatant. Indicators of this supernatant were measured using an ELISA kit (Ebioscience).
The Y-shaped maze measurement device is shaped like an alphabetical Y with three arms extending from it, each arm being 25 cm long, 14 cm high, 5 cm wide, and positioned at the same angle. At the end of one arm of the Y-shaped maze, the animal was placed with its head facing out and allowed to freely navigate the arm for 8 minutes. The animal's movements were recorded, and reported as arm entries when the animal entered the arm with its hind paw, and the animal's movement was represented by an alternation, which was defined as one alternation when the animal passed through the three arms in succession. The amount of spontaneous alternation behavior was expressed as a percentage between the actual number of alternations and the maximum possible number of alternations (i.e., the total number of […] minus 2).
The experiment was conducted in a box (40×40×40 cm) made so that the outside could not be seen from the inside. Two objects (A, A′) of the same shape and size were fixedly disposed in a box and the mouse was relocated to start from the center of the box. Then, the number of times the mouse made contact with the two objects was recorded for 10 minutes. After 24 hours, one of the two objects was replaced with a new object (A, B). Then, one original object and one new object were prepared, and the animal's exploration time was measured.
C57BL/6 male mice (5 weeks old, 19-21 g) were divided (6 mice in each group) and acclimatized to the laboratory for 1 week. To induce intestinal and brain diseases, the mice were administered with cyclophosphamide (CP, 150 mg/kg, dissolved in physiological saline) for 1 day, rested for 1 day, and then administered intraperitoneally the next day. Meanwhile, the normal group was administered intraperitoneally with 0.1 ml of physiological saline. […] The day following the conclusion of sample administration, the experimental animals were sacrificed, and samples from the brain hippocampus, colon, and spleen were collected. In the Hippocampus, inflammatory indicators, such as IFN-γ, TNF-α, and IL-10, were measured using ELISA. In the colon, intestinal length and inflammatory indicators, such as IFN-γ, TNF-α, and IL-10, were measured. In the spleen, Th1 cells and Treg cells were measured by FACS (Fluorescence-Activated Cell Sorting).

BDNF = BDNF expression in SH-SY5Y cells; type: cell-based; settings: LPS 200 ng/ml; lactic acid bacteria 1×10^4 CFU/ml; 24 h
Protocol: SH-SY5Y cells obtained from the Korean Cell Line Bank were cultured in DMEM medium supplemented with 10% FBS and 1% antibiotics, and dispensed at 2×10^6 cells per well in a 12-well plate. Then, LPS (200 ng/ml) was added to each well along with lactic acid bacteria (1×10^4 CFU/ml) and incubated for 24 h. The cells and supernatants were collected, sonicated and centrifuged, and the amount of BDNF in the supernatant was measured by ELISA kit.

[2] = system: animals with intestinal and brain diseases induced by TNBS; test: Animals with intestinal and brain diseases induced by TNBS: improvement effect in colon; type: in vivo, C57BL/6 male mice; settings: TNBS-treated mice, 1×10^9 CFU/mouse or sulfasalazine 50 mg/kg orally once a day for 5 days
Protocol: Then, the supernatant was obtained by centrifugation for 10 minutes at 4° C. and 10,000 g. A volume of 50 μl of the supernatant was added to 0.95 mk of reaction solution (containing 1.6 mM tetramethyl benzidine and 0.1 mM H2O2), reacted at 37° C., and absorbance was monitored over time at 650 nm. […] Indicators of this supernatant were measured using an ELISA kit (Ebioscience). C57BL/6 male mice (5 weeks old, 19-21 g) were divided (6 mice in each group) and acclimatized to the laboratory for 1 week. […] Meanwhile, the normal group was orally administered with 0.1 ml of physiological saline. From the next day, the mice were orally administered once a day for 5 days with lactic acid bacteria as a test sample suspended in physiological saline solution at a concentration of 1×10^9 CFU per mouse (NK210 alone (LR): 1×10^9 CFU/mouse, NK219 alone (BL): 1×10^9 CFU/mouse, NK209 alone (LL): 1×10^9 CFU/mouse, combined (MX, 210+219): NK210, 8×10^8 CFU/mouse and NK219, 2×10^8 CFU/mouse, combined (MX, 209+219) NK209, 8×10^8 CFU/mouse and NK219, 2×10^8 CFU/mouse, LR+BL+LL: NK210, 4×10^8 CFU/mouse, NK219, 2×10^8 CFU/mouse, and NK209, 4×10^8 CFU/mouse, heat treated (H—), respectively: 1×10^9 CFU/mouse). […] The day following the conclusion of sample administration, the experimental animals were sacrificed, and samples from the brain hippocampus, colon, and spleen were collected. In the Hippocampus, inflammatory indicators, such as TNF-α and IL-10, were measured using ELISA. In the colon, intestinal length and inflammatory indicators, such as TNF-α and IL-10, were measured. In the spleen, Th1 cells and Treg cells were measured by FACS (Fluorescence-Activated Cell Sorting).

IL-10 = IL-10 expression in LPS-treated macrophages (ELISA); type: cell-based, C57BL/6 mice; settings: macrophages treated with lactic acid bacteria and LPS for 24 hours
Outline: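 Peritoneal macrophages were elicited in male C57BL/6 mice (6 weeks) by i.p. 4% thioglycolate and harvested 96 h later. Cells at 0.5×10^6/well were treated with lactic acid bacteria plus LPS for 24 h. Cytokines in the supernatant were quantified by ELISA.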

Substance | Exoporation (%) (in NOR task) [1] | Spontaneous alteration (%) (in Y-maze task) [1] | IFN-γ/IL-10 [1] | IL-10 [1] [pg/mg] | Interferon (IFN)-γ [1] [pg/mg] | TNF-a/IL-10 [1] | TNF-α [1] [pg/mg] | SHSY5Y cell Induction of BDNF expression (BDNF) | Colon IFN-γ [2] [pg/mg] | Colon IL-10 [2] [pg/mg] | Colon MPO [2] [μUnit/mg] | Colon TNF-α [2] [pg/mg] | Colon length (cm) [2] [cm] | Macrophage Induction of IL-10 expression (IL-10)
Lactobacillus rhamnosus NK210 | 78.71 | 70.94 | 0.59 | 43.29 | 25.30 | 0.24 | 10.44 | ++ (strongly (++; >60-90%)) | 8.42 | 15.31 | 18.43 | 23.84 | 4.63 | +++ (very strongly (+++; >90%))
Bifidobacterium longum NK219 | 78.34 | 71.26 | 0.44 | 53.74 | 23.48 | 0.20 | 10.91 | +++ (very strongly (+++; >90%)) | 7.79 | 17.20 | 16.24 | 20.57 | 4.82 | +++ (very strongly (+++; >90%))
Lactococcus lactis NK209 |  |  |  |  |  |  |  | + (weakly (+; >20-60%)) | 7.89 | 17.10 | 15.65 | 20.12 | 4.89 | + (weakly (+; >20-60%))

Source: patent US20250009819A1, “NOVEL PROBIOTICS AND USE THEREOF” (PBLBIOLAB CO., LTD., priority 2021, published 2025)
